This is an account of results in patent US20240116985A1, “STAPLED PEPTIDES AND METHODS THEREOF” (priority 2020, published 2024).

SMILES strings stand for the structures.

A short description of this series: CHI Log D procedure. As to conditions: for CHI Log D: pH 7.4; for chromatographic logD: pH 7.4, CHI Log D. It is filed as physicochemical.

As to `CC(=O)N[C@@H](Cc1ccccc1)C(=O)N[C@@H](CC(=O)O)C(=O)N[C@@H](C)C(=O)N[C@]1(C)CN(C)C(=O)OCC=CCCCCC[C@@](C)(C(=O)N[C@@H](Cc2ccccc2)C(=O)N[C@@H](Cc2c[nH]c3ccccc23)C(=O)N[C@@H](CCC(N)=O)C(N)=O)NC(=O)[C@H](C(C)C)NC(=O)[C@H](Cc2ccccc2)NC(=O)[C@H](C)NC(=O)[C@H](C)NC(=O)[C@H](CC(=O)O)NC(=O)[C@H](CC(=O)O)NC1=O` (single isomer, unassigned) [I-46, Ac-Phe-Asp-Ala-RgN-Asp-Asp-Ala-Ala-Phe-Val-S7-Phe-Trp-Gln-NH2], the “CHI Log D” value is 1.205.
As to `CC(=O)N[C@@H](Cc1ccccc1)C(=O)N[C@@H](CC(=O)O)C(=O)N[C@]1(C)CCCCCCC=CCCC[C@@](C)(C(=O)N[C@@H](C)C(=O)N[C@@H](Cc2ccccc2)C(=O)N[C@@H](Cc2c[nH]c3ccccc23)C(=O)N[C@@H](CCC(N)=O)C(N)=O)NC(=O)[C@H](Cc2ccccc2)NC(=O)[C@H](C)NC(=O)[C@H](C)NC(=O)[C@H](CC(=O)O)NC(=O)[C@H](CC(=O)O)NC(=O)[C@H](C)NC1=O` (single isomer, unassigned) [I-47, Ac-Phe-Asp-R8-Ala-Asp-Asp-Ala-Ala-Phe-S5-Ala-Phe-Trp-Gln-NH2], the chromatographic logD came out at 1.28.
As for `CC(=O)N[C@@H](Cc1ccccc1)C(=O)N[C@@H](CC(=O)O)C(=O)N[C@]1(C)CCCCCCC=CCCC[C@@](C)(C(=O)N[C@@H](C)C(=O)N[C@@H](Cc2ccccc2)C(=O)N[C@@H](Cc2c[nH]c3ccccc23)C(=O)N[C@@H](CCC(N)=O)C(N)=O)NC(=O)[C@H](Cc2ccccc2)NC(=O)[C@H](C)NC(=O)[C@H](C)NC(=O)[C@H](CC(=O)O)NC(=O)[C@H](CC(=O)O)NC(=O)[C@H](C)NC1=O` (single isomer, unassigned) [I-48, Ac-Phe-Asp-R8-Ala-Asp-Asp-Ala-Ala-Phe-S5-Ala-Phe-Trp-Gln-NH2], the “CHI Log D” value came out at 1.37.
`CC(=O)N[C@@H](Cc1ccccc1)C(=O)N[C@@H](CC(=O)O)C(=O)N[C@]1(C)CCN(C)C(=O)OCC=CCCCCC[C@@](C)(C(=O)N[C@@H](C)C(=O)N[C@@H](Cc2ccccc2)C(=O)N[C@@H](Cc2c[nH]c3ccccc23)C(=O)N[C@@H](CCC(N)=O)C(N)=O)NC(=O)[C@H](Cc2ccccc2)NC(=O)[C@H](C)NC(=O)[C@H](C)NC(=O)[C@H](CC(=O)O)NC(=O)[C@H](CC(=O)O)NC(=O)[C@H](C)NC1=O` (single isomer, unassigned) [I-49, Ac-Phe-Asp-RdN-Ala-Asp-Asp-Ala-Ala-Phe-S7-Ala-Phe-Trp-Gln-NH2]: the chromatographic logD stood at 1.18.
For the compound `CC(=O)N[C@@H](Cc1ccccc1)C(=O)N[C@@H](CC(=O)O)C(=O)N[C@]1(C)CCN(C)C(=O)OCC=CCCCCC[C@@](C)(C(=O)N[C@@H](C)C(=O)N[C@@H](Cc2ccccc2)C(=O)N[C@@H](Cc2c[nH]c3ccccc23)C(=O)N[C@@H](CCC(N)=O)C(N)=O)NC(=O)[C@H](Cc2ccccc2)NC(=O)[C@H](C)NC(=O)[C@H](C)NC(=O)[C@H](CC(=O)O)NC(=O)[C@H](CC(=O)O)NC(=O)[C@H](C)NC1=O` (single isomer, unassigned) [I-50, Ac-Phe-Asp-RdN-Ala-Asp-Asp-Ala-Ala-Phe-S7-Ala-Phe-Trp-Gln-NH2], the “CHI Log D” value is on record as 1.201.
As to `CC(=O)N[C@@H](Cc1ccccc1)C(=O)N[C@@H](CC(=O)O)C(=O)N[C@@H](C)C(=O)N[C@]1(C)CCCCCCC=CCOC(=O)N2CC[C@@](C(=O)N[C@@H](Cc3ccccc3)C(=O)N[C@@H](Cc3c[nH]c4ccccc34)C(=O)N[C@@H](CCC(N)=O)C(N)=O)(C2)NC(=O)[C@H](C(C)C)NC(=O)[C@H](Cc2ccccc2)NC(=O)[C@H](C)NC(=O)[C@H](C)NC(=O)[C@@](C)(Cc2ccccc2)NC(=O)[C@H](CC(=O)O)NC1=O` (single isomer, unassigned) [I-56, Ac-Phe-Asp-Ala-R8-Asp-aMeDF-Ala-Ala-Phe-Val-PyrS-Phe-Trp-Gln-NH2], the chromatographic logD came to 2.16.
Turning to `CC(=O)N[C@@H](Cc1ccccc1)C(=O)N[C@@H](CC(=O)O)C(=O)N[C@@H](C)C(=O)N[C@]1(C)CCCCCCC=CCOC(=O)N2CC[C@@](C(=O)N[C@@H](Cc3ccccc3)C(=O)N[C@@H](Cc3c[nH]c4ccccc34)C(=O)N[C@@H](CCC(N)=O)C(N)=O)(C2)NC(=O)[C@H](C(C)C)NC(=O)[C@H](Cc2ccccc2)NC(=O)[C@H](C)NC(=O)[C@H](C)NC(=O)[C@@](C)(Cc2ccccc2)NC(=O)[C@H](CC(=O)O)NC1=O` (single isomer, unassigned) [I-57, Ac-Phe-Asp-Ala-R8-Asp-aMeDF-Ala-Ala-Phe-Val-PyrS-Phe-Trp-Gln-NH2], the “CHI Log D” value was 2.152.
In turn, `CC(=O)N[C@@H](Cc1ccccc1)C(=O)N[C@@H](CC(=O)O)C(=O)N[C@@H](C)C(=O)N[C@]1(C)CCCCCCC=CCOC(=O)N2CC[C@@](C(=O)N[C@@H](Cc3ccccc3)C(=O)N[C@@H](Cc3c[nH]c4ccccc34)C(=O)N[C@@H](CCC(N)=O)C(N)=O)(C2)NC(=O)[C@H](C(C)C)NC(=O)[C@H](Cc2ccccc2)NC(=O)[C@H](C)NC(=O)[C@H](C)NC(=O)[C@H](CCC(N)=O)NC(=O)[C@H](CC(=O)O)NC1=O` (single isomer, unassigned) [I-58, Ac-Phe-Asp-Ala-R8-Asp-Gln-Ala-Ala-Phe-Val-PyrS-Phe-Trp-Gln-NH2] yielded a chromatographic logD of 1.5.
Compound `CC(=O)N[C@@H](Cc1ccccc1)C(=O)N[C@@H](CC(=O)O)C(=O)N[C@@H](C)C(=O)N[C@]1(C)CCCCCCC=CCOC(=O)N2CC[C@@](C(=O)N[C@@H](CC3CCCCC3)C(=O)N[C@@H](Cc3c[nH]c4ccccc34)C(=O)N[C@@H](CCC(N)=O)C(N)=O)(C2)NC(=O)[C@H](C(C)C)NC(=O)[C@H](Cc2ccccc2)NC(=O)[C@H](C)NC(=O)[C@H](C)NC(=O)[C@H](CC(=O)O)NC(=O)[C@H](CC(=O)O)NC1=O` (single isomer, unassigned) [I-60, Ac-Phe-Asp-Ala-R8-Asp-Asp-Ala-Ala-Phe-Val-PyrS-Cha-Trp-Gln-NH2] yielded a chromatographic logD of 1.36.
As for `CC(=O)N[C@@H](Cc1ccccc1)C(=O)N[C@@H](CC(=O)O)C(=O)N[C@@H](C)C(=O)N[C@]1(C)CCCCCCC=CCOC(=O)N2CC[C@@](C(=O)N[C@@H](Cc3ccc(O)cc3)C(=O)N[C@@H](Cc3c[nH]c4ccccc34)C(=O)N[C@@H](CCC(N)=O)C(N)=O)(C2)NC(=O)[C@H](C(C)C)NC(=O)[C@H](Cc2ccccc2)NC(=O)[C@H](C)NC(=O)[C@H](C)NC(=O)[C@H](CC(=O)O)NC(=O)[C@H](CC(=O)O)NC1=O` (single isomer, unassigned) [I-62, Ac-Phe-Asp-Ala-R8-Asp-Asp-Ala-Ala-Phe-Val-PyrS-Tyr-Trp-Gln-NH2], the chromatographic logD is 0.981.
Turning to `CC(=O)N[C@@H](Cc1ccccc1)C(=O)N[C@@H](CC(=O)O)C(=O)N[C@@H](C)C(=O)N[C@]1(C)CCCCCCC=CCOC(=O)N2CC[C@@](C(=O)N[C@@H](Cc3ccc(O)cc3)C(=O)N[C@@H](Cc3c[nH]c4ccccc34)C(=O)N[C@@H](CCC(N)=O)C(N)=O)(C2)NC(=O)[C@H](C(C)C)NC(=O)[C@H](Cc2ccccc2)NC(=O)[C@H](C)NC(=O)[C@H](C)NC(=O)[C@H](CC(=O)O)NC(=O)[C@H](CC(=O)O)NC1=O` (single isomer, unassigned) [I-63, Ac-Phe-Asp-Ala-R8-Asp-Asp-Ala-Ala-Phe-Val-PyrS-Tyr-Trp-Gln-NH2], the “CHI Log D” value is listed as 1.019.
In turn, `CC[C@H](C)[C@H](NC(=O)[C@H](CC(=O)O)NC(=O)[C@H](C)NC(C)=O)C(=O)N[C@]1(C)CCN(C)C(=O)OCC=CCCCCC[C@@](C)(C(=O)N[C@@H](Cc2ccccc2)C(=O)N[C@@H](Cc2c[nH]c3ccccc23)C(=O)N[C@@H](Cc2c[nH]cn2)C(N)=O)NC(=O)[C@H](CCC(N)=O)NC(=O)[C@H](Cc2ccccc2)NC(=O)[C@H](C)NC(=O)[C@H](C)NC(=O)[C@H](CCC(C)C)NC(=O)[C@H](CC(=O)O)NC1=O` (single isomer, unassigned) [I-70, Ac-Ala-Asp-Ile-RdN-Asp-hLeu-Ala-Ala-Phe-Gln-S7-Phe-Trp-His-NH2] registered a chromatographic logD of 1.61.
For the compound `CC[C@H](C)[C@H](NC(=O)[C@H](CC(=O)O)NC(=O)[C@H](C)NC(C)=O)C(=O)N[C@]1(C)CCN(C)C(=O)OCC=CCCCCC[C@@](C)(C(=O)N[C@@H](Cc2ccccc2)C(=O)N[C@@H](Cc2c[nH]c3ccccc23)C(=O)N[C@@H](Cc2c[nH]cn2)C(N)=O)NC(=O)[C@H](CCC(N)=O)NC(=O)[C@H](Cc2ccccc2)NC(=O)[C@H](C)NC(=O)[C@H](C)NC(=O)[C@H](CCC(C)C)NC(=O)[C@H](CC(=O)O)NC1=O` (single isomer, unassigned) [I-71, Ac-Ala-Asp-Ile-RdN-Asp-hLeu-Ala-Ala-Phe-Gln-S7-Phe-Trp-His-NH2], the “CHI Log D” value is listed as 1.686.
Take `CC[C@H](C)[C@H](NC(=O)[C@H](CC(=O)O)NC(=O)[C@H](C)NC(C)=O)C(=O)N[C@]1(C)CCN(C)C(=O)OCC=CCCCCC[C@@](C)(C(=O)N[C@@H](Cc2ccccc2)C(=O)N[C@@H](Cc2c[nH]c3ccccc23)C(=O)N[C@@H](Cc2c[nH]cn2)C(N)=O)NC(=O)[C@H](CCC(N)=O)NC(=O)[C@H](Cc2ccccc2)NC(=O)[C@H](C)NC(=O)[C@H](C)NC(=O)[C@H](CC2CCCCC2)NC(=O)[C@H](CC(=O)O)NC1=O` (single isomer, unassigned) [I-72, Ac-Ala-Asp-Ile-RdN-Asp-Cha-Ala-Ala-Phe-Gln-S7-Phe-Trp-His-NH2]: the chromatographic logD worked out at 1.72.
Turning to `CC[C@H](C)[C@H](NC(=O)[C@H](CC(=O)O)NC(=O)[C@H](C)NC(C)=O)C(=O)N[C@]1(C)CCN(C)C(=O)OCC=CCCCCC[C@@](C)(C(=O)N[C@@H](Cc2ccccc2)C(=O)N[C@@H](Cc2c[nH]c3ccccc23)C(=O)N[C@@H](Cc2c[nH]cn2)C(N)=O)NC(=O)[C@H](CCC(N)=O)NC(=O)[C@H](Cc2ccccc2)NC(=O)[C@H](C)NC(=O)[C@H](C)NC(=O)[C@H](CC2CCCCC2)NC(=O)[C@H](CC(=O)O)NC1=O` (single isomer, unassigned) [I-73, Ac-Ala-Asp-Ile-RdN-Asp-Cha-Ala-Ala-Phe-Gln-S7-Phe-Trp-His-NH2], the “CHI Log D” value came out at 1.723.
As to `CC(=O)N[C@@H](Cc1ccccc1)C(=O)N[C@@H](CC(=O)O)C(=O)N[C@@H](C)C(=O)N[C@]1(C)CCCCCCC=CCOC(=O)N2CC[C@@](C(=O)N[C@@H](Cc3ccccc3)C(=O)N[C@@H](Cc3c[nH]c4ccccc34)C(=O)N[C@@H](CCC(N)=O)C(N)=O)(C2)NC(=O)[C@H](C(C)C)NC(=O)[C@H](CC2CCCCC2)NC(=O)[C@H](C)NC(=O)[C@H](C)NC(=O)[C@H](CC(=O)O)NC(=O)[C@H](CC(=O)O)NC1=O` (single isomer, unassigned) [I-74, Ac-Phe-Asp-Ala-R8-Asp-Asp-Ala-Ala-Cha-Val-PyrS-Phe-Trp-Gln-NH2], the chromatographic logD is 1.33.

Broadly, the chromatographic logD is a lipophilicity value derived from retention on a column.
